# Like-named read-outs stand apart in the source and are kept apart here.
# How the values were obtained:
# Sclerotinia sclerotiorum = assay: Synergistic Growth Inhibition Assay (MIC / FIC index, resazurin, 96-well) on Sclerotinia sclerotiorum; type: cell-based; settings: for MIC (A): Compound A alone
# Protocol: (§1) In some embodiments, the synergistic action between the pesticidal active ingredient, and the at least one C4-C10 (or alternatively C11 or C12) saturated or unsaturated aliphatic acid components of the pesticidal compositions according to embodiments of the present disclosure was tested using a Synergistic Growth Inhibition Assay, which is derived from and related to a checkerboard assay as is known in the art for testing of combinations of antimicrobial agents. In the Synergistic Growth Inhibition Assay used in accordance with some embodiments of the present disclosure, multiple dilutions of combinations of pesticidal active ingredient and at least one C4-C10 saturated or unsaturated aliphatic acid agents are tested in individual cells for inhibitory activity against a target pest or pathogenic organism. In one such embodiment, the combinations of pesticidal active ingredient and C4-C10 (or alternatively C11 or C12) saturated or unsaturated aliphatic acid agents may preferably be tested in decreasing concentrations. In a further such embodiment, the combinations of pesticidal active ingredient and C4-C10 (or alternatively C11 or C12) saturated or unsaturated aliphatic acid agents may be tested in increasing concentrations. These multiple combinations of the pesticidal active ingredient and at least one C4-C10 (or alternatively C11 or C12) saturated or unsaturated aliphatic acid agents may be prepared in 96-well microtiter plates. In one such embodiment, the Synergistic Growth Inhibition Assay then comprises rows which each contain progressively decreasing concentrations of the pesticidal active ingredient and one or more C4-C10 (or alternatively C11 or C12) saturated or unsaturated aliphatic acid agents to test for the MIC of the agents in combination at which growth of the target pest or pathogen is inhibited. Thus, each well of the microtiter plate is a unique combination of the two agents, at which inhibitory efficacy of the combination against the target pest or pathogen can be determined.
# (§2) In one embodiment according to the present disclosure, for each row of microtiter cells in the Synergistic Growth Inhibition Assay, the FIC index is calculated from the lowest concentration of the pesticidal active ingredient and one or more C4-C10 saturated or unsaturated aliphatic acid agents necessary to inhibit growth of a target pest or pathogen. The FIC of each component is derived by dividing the concentration of the agent present in that well of the microtiter plate by the minimal inhibitory concentration (MIC) needed of that agent alone to inhibit growth of the target pest or pathogen. The FIC index is then the sum of these values for both agents in that well of the microtiter plate. The FIC index is calculated for each row as follows:
# (§3) FICindex=MICa/MICA+MICb/MICB
# (§4) Fractional inhibitory concentration indices may then used as measure of synergy. […] When the FIC index is equal to 1, the combination is additive.
# (§5) Then, serial dilutions of these initial compositions in successive wells in the row of the microtiter plate were used to assay the pesticidal composition under the same conditions to determine the concentration of the composition combining the two agents corresponding to the microtiter well in which growth inhibition of the target pest or organism ceases.
# (§6) Similarly to as described above, Resazurin was used as an indicator of growth or inhibition of growth of Sclerotinia sclerotiorum in the exemplary Synergistic Growth Inhibition Assay. In addition to the color change of the resazurin, an optical or visual examination of the microtiter well may also be made to additionally determine the presence of growth or inhibition of growth of the Sclerotinia sclerotiorum.
# Fusarium oxysporum = assay: Synergistic Growth Inhibition Assay (MIC / FIC index, resazurin, 96-well) on Fusarium oxysporum; type: cell-based; settings: for MIC: 48 h
# Protocol: as §1, §2, §3, §4, §5
# Resazurin dye (also known as Alamar blue dye) was used as an indicator to determine the presence of growth or inhibition of growth of Fusarium oxysporum in the wells of the 96 well microtiter plates used in the exemplary Synergistic Growth Inhibition Assay. In addition to the color change of the resazurin dye in the presence of growth of the Fusarium oxysporum, an optical or visual examination of the microtiter well may also be made to additionally determine the presence of growth or inhibition of growth of the Fusarium oxysporum.
# Botrytis cinerea = assay: Synergistic Growth Inhibition Assay (MIC / FIC index, resazurin, 96-well) on Botrytis cinerea; type: cell-based; settings: Botrytis cinerea; for MIC: 48 h
# Protocol: as §1, §2, §3, §4, §5
# as §6, with “Botrytis cinerea” for “Sclerotinia sclerotiorum”, “Botrytis cinerea.” for “Sclerotinia sclerotiorum.”
# Trichoplusia ni = assay: In-vitro insecticidal efficacy of Entrust SC (spinosad) with saturated and unsaturated aliphatic acids on artificial diet, Abbott and Colby formulae; type: in vivo, Trichoplusia ni (cabbage looper); settings: Entrust SC 0.034 ppm ([…] spinosad); aliphatic acid (salt) 500 ppm; Abbott-corrected
# Protocol: An artificial diet suitable for Trichoplusia ni (cabbage looper caterpillar) was prepared from a commercially available general purpose lepidoptera artificial diet premix (General Purpose Lepidoptera Diet available from Frontier Scientific Services, Newark, Del.) mixed in agar media and then heated to liquify the media. The liquid artificial diet media was then used to fill each well of a 96-well treatment plate with 200 uL of artificial diet media, which was allowed to solidify at room temperature and stored at approximately 4 C.
# A 20 uL treatment sample of each treatment formulation was then placed on top of the solidified artificial diet media in each well of the 96 well plates and allowed to dry overnight. The following day, one neonate Trichoplusia ni (cabbage looper) larva (hatched from eggs obtained from the Natural Resource Canada insect research facility in Sault-Ste-Marie, ON, Canada) was added to each well of the plate, and their mortality rate was evaluated after 5 days, to determine the insecticidal efficacy of the Entrust® SC treatment alone, each exemplary unsaturated or saturated aliphatic acid (and salt) alone, and each combination of spinosad (as Entrust® SC) and unsaturated or saturated aliphatic acid (and salt). Each experiment contained 3 replicates.
# While for SF<1, antagonism is present and for SF=1, the efficacy of the compounds is merely additive.
# [1] = Sclerotinia sclerotiorum, Compound B alone, Sclerotinia sclerotiorum, incubation period of 7 days, read-out: MIC (B)
# [2] = Fusarium oxysporum, Compound B alone, Fusarium oxysporum, 48 hours incubation, read-out: MIC (B)
# [3] = Sclerotinia sclerotiorum, Compound B alone, Sclerotinia sclerotiorum, 7 days incubation, read-out: MIC (B)
# [4] = Fusarium oxysporum, Compound B alone, Fusarium oxysporum, incubation period of 48 hours, read-out: MIC (B)
# [5] = Compound B alone, 48 hours incubation
# [6] = Sclerotinia sclerotiorum, read-out: MIC (B), Compound B alone, Sclerotinia sclerotiorum, 7 days incubation
# [7] = Compound A alone, incubation period of 48 hours, read-out: MIC (A)
# [8] = Compound A alone, 48 hours incubation
# [9] = Compound A alone, incubation period of 2 days
# [10] = Compound A alone, incubation period of 48 hours
structure (smiles),measurement,setting,value
"CCC(CC)(CC)C(=O)O [2,2-diethylbutyric acid]",MIC,Sclerotinia sclerotiorum; [1],250 µg/mL
same,MIC,Fusarium oxysporum; [2],250 µg/mL
"CC=CC=CC(=O)O [2,4-Dihexenoic acid]",MIC (B),"Botrytis cinerea; Compound B alone, incubation period of 48 hours",125 µg/mL
CCC(O)C(=O)O (stereo not shown) [2-hydroxybutyric acid],MIC,Sclerotinia sclerotiorum; [3],2500 µg/mL
same,MIC,Sclerotinia sclerotiorum; [1],2500 µg/mL
same,MIC,Fusarium oxysporum; [2],5000 µg/mL
same,MIC,Fusarium oxysporum; [4],5000 µg/mL
CCCCC(O)C(=O)O (stereo not shown) [2-hydroxyhexanoic acid],MIC,Sclerotinia sclerotiorum; [1],2500 µg/mL
same,MIC,Fusarium oxysporum; [2],2500 µg/mL
same,MIC,Fusarium oxysporum; [4],2500 µg/mL
same,MIC,"Botrytis cinerea; Compound B alone, 48 hours incubation, read-out: MIC (B)",2500 µg/mL
same,MIC,"Botrytis cinerea; Compound B alone, incubation period of 2 days, read-out: MIC (B)",2500 µg/mL
CCCCCCC(O)C(=O)O (stereo not shown) [2-hydroxyoctanoic acid],MIC,Sclerotinia sclerotiorum; [1],312 µg/mL
same,MIC,Fusarium oxysporum; [2],625 µg/mL
same,MIC,Fusarium oxysporum; [4],625 µg/mL
"CCCCCCC=CCC(=O)O [3-Decenoic acid, 3-decenoic acid]",MIC (B),"Fusarium oxysporum; Compound B (aliphatic acid) alone, Fusarium oxysporum, incubation period of 48 hours",312.5 µg/mL
same,"Observed Efficacy, W (%)",Trichoplusia ni,0%
"CC(O)CC(=O)O (stereo not shown) [3-Hydroxybutyric acid, 3-hydroxybutyric acid]",MIC (B),Botrytis cinerea; [5],10000 µg/mL
"CCCC(O)CC(=O)O (stereo not shown) [3-Hydroxyhexanoic acid, 3-hydroxyhexanoic acid]",MIC (B),Botrytis cinerea; [5],2500 µg/mL
"CCCCC=CCC(=O)O [3-Octenoic acid, 3-octenoic acid]","Observed Efficacy, W (%)",Trichoplusia ni,0%
CCCC=CCC(=O)O [3-heptanoic acid],"Observed Efficacy, W (%)",Trichoplusia ni,4.5%
CCCCCC(O)CC(=O)O (stereo not shown) [3-hydroxyoctanoic acid],MIC,Sclerotinia sclerotiorum; [3],625 µg/mL
same,MIC,Sclerotinia sclerotiorum; [1],625 µg/mL
same,MIC,Fusarium oxysporum; [4],1250 µg/mL
CC(C)CC(=O)O [3-methylbutyric acid],MIC,Sclerotinia sclerotiorum; [3],312 µg/mL
same,MIC,Fusarium oxysporum; [2],625 µg/mL
CCCC(C)CC(=O)O (stereo not shown) [3-methylhexanoic acid],MIC,Sclerotinia sclerotiorum; [3],125 µg/mL
same,MIC,Sclerotinia sclerotiorum; [1],125 µg/mL
same,MIC,Fusarium oxysporum; [2],125 µg/mL
CCCCCC=CCC(=O)O [3-nonenoic acid],"Observed Efficacy, W (%)",Trichoplusia ni,9.1%
CCC(C)CCC(=O)O (stereo not shown) [4-methylhexanoic acid],MIC,Sclerotinia sclerotiorum; [3],78.1 µg/mL
same,MIC,Sclerotinia sclerotiorum; [1],78.1 µg/mL
same,MIC,Fusarium oxysporum; [2],156 µg/mL
same,MIC,"Botrytis cinerea; Compound B alone, incubation period of 48 hours, read-out: MIC (B)",156 µg/mL
C=CCCCC(=O)O [5-hexenoic acid],"Observed Efficacy, W (%)",Trichoplusia ni,0%
C=CCCCCCC(=O)O [7-octenoic acid],"Observed Efficacy, W (%)",Trichoplusia ni,0%
"C=CCCCCCCCC(=O)O [9-Decenoic acid, 9-decenoic acid]","Observed Efficacy, W (%)",Trichoplusia ni,4.5%
O=C(O)CCCCCCCCCO [10-hydroxydecanoic acid],MIC,Sclerotinia sclerotiorum; [6],1000 µg/mL
same,MIC,"Fusarium oxysporum; Fusarium oxysporum, read-out: MIC (B), Compound B alone, Fusarium oxysporum, 48 hours incubation",1000 µg/mL
same,MIC,"Botrytis cinerea; read-out: MIC (B), Compound B alone, 48 hours incubation",500 µg/mL
same,MIC,"Botrytis cinerea; read-out: MIC (B), Compound B alone, incubation period of 2 days",500 µg/mL
O=C(O)CCCCCCCCCCCO [12-hydroxydodecanoic acid],MIC,Sclerotinia sclerotiorum; [6],100 µg/mL
same,MIC,"Sclerotinia sclerotiorum; Sclerotinia sclerotiorum, read-out: MIC (B), Compound B alone, Sclerotinia sclerotiorum, incubation period of 7 days",100 µg/mL
"C/C=C/C=C/C(=O)[O-].[K+] [(2E,4E)-2,4 hexadienoic acid, K-salt]","Observed Efficacy, W (%)",Trichoplusia ni,9.1%
"C/C=C/C=C/C(=O)O [(2E,4E)-2,4 hexadienoic acid]","Observed Efficacy, W (%)",Trichoplusia ni,4.5%
"Cc1cc(C2CC2)nc(Nc2ccccc2)n1 [Cyprodinil, reference compound]",MIC,Botrytis cinerea; [7],9 µg/mL
"CC1COC(Cn2cncn2)(c2ccc(Oc3ccc(Cl)cc3)cc2Cl)O1 (stereo not shown) [Difenoconazole, reference compound]",MIC (A),Fusarium oxysporum; [8],51 µg/mL
same,MIC,Botrytis cinerea; [7],25.5 µg/mL
same,MIC (A),Botrytis cinerea; [9],51 µg/mL
"CCCCCCCCCCCC(=O)O [Dodecanoic acid, dodecanoic acid]","Observed Efficacy, W (%)",Trichoplusia ni,0%
"N#Cc1c[nH]cc1-c1cccc2c1OC(F)(F)O2 [Fludioxonil, fludioxonil, reference compound]",MIC,"Sclerotinia sclerotiorum; Sclerotinia sclerotiorum, read-out: MIC (A), Compound A alone, Sclerotinia sclerotiorum, incubation period of 7 days",0.328 µg/mL
same,MIC,"Botrytis cinerea; read-out: MIC (A), Compound A alone, incubation period of 2 days",0.164 µg/mL
"CC(C)C1C2CCC1c1c(NC(=O)c3cn(C)nc3C(F)F)cccc12 (stereo not shown) [Isopyrazam, reference compound]",MIC (A),Botrytis cinerea; [10],31.25 µg/mL
C=C(C)[C@@H]1CCC2=CC(=O)C[C@@H](C)[C@]2(C)C1 [Nootkatone (+)],MIC (A),"Fusarium oxysporum; Compound A alone, Fusarium oxysporum, incubation period of 48 hours",500 µg/mL
same,MIC (A),"Fusarium oxysporum; Table 60, Compound A = nootkatone(+), alone or in combination with Compound B, incubation period not stated in table (either 24 hours or 4 days)",500 µg/mL
same,MIC (A),Botrytis cinerea; [10],125 µg/mL
"CCCCCCCC(=O)[O-].[K+] [Octanoic acid, K-salt]","Observed Efficacy, W (%)",Trichoplusia ni,0%
"CCCCCCCC(=O)O [Octanoic acid, octanoic acid]","Observed Efficacy, W (%)",Trichoplusia ni,4.5%
"Cc1cc(C(F)(F)F)nn1CC(=O)N1CCC(c2nc(C3=NOC(c4c(F)cccc4F)C3)cs2)CC1 (stereo not shown) [Oxathiapiprolin, reference compound]",MIC (A),Botrytis cinerea; [10],500 µg/mL
"COC(=O)N(OC)c1ccccc1COc1ccn(-c2ccc(Cl)cc2)n1 [Pyraclostrobin, pyraclostrobin, reference compound]",MIC (A),Sclerotinia sclerotiorum; 7 days incubation,3.75 µg/mL
same,MIC,"Botrytis cinerea; Compound A alone, incubation period of 2 days, read-out: MIC (A)",15 µg/mL
"CC(C)(C)C(O)(CCc1ccc(Cl)cc1)Cn1cncn1 (stereo not shown) [Tebuconazole, reference compound]",MIC (A),"Sclerotinia sclerotiorum; Sclerotinia sclerotiorum, 2-fold dilutions, incubation period of 7 days",112.5 µg/mL
same,MIC (A),Fusarium oxysporum; [8],225 µg/mL
same,MIC,"Fusarium oxysporum; Fusarium oxysporum, Compound A alone, Fusarium oxysporum, incubation period of 48 hours, read-out: MIC (A)",112 µg/mL
same,MIC (A),Botrytis cinerea; [9],112.5 µg/mL
same,MIC (A),Botrytis cinerea; [10],112.5 µg/mL
CCCCCC/C=C/C(=O)O [Trans-2 nonenoic acid],"Observed Efficacy, W (%)",Trichoplusia ni,3.6%
CCCCCCCC/C=C/C(=O)O [Trans-2 undecenoic acid],"Observed Efficacy, W (%)",Trichoplusia ni,27.3%
CCCC/C=C/CC(=O)O [Trans-3 octenoic acid],"Observed Efficacy, W (%)",Trichoplusia ni,4.5%
"CC/C=C/CC(=O)O [Trans-3-hexenoic acid, trans-3-hexenoic acid]","Observed Efficacy, W (%)",Trichoplusia ni,0%

# From US20210352895A1, “SYNERGISTIC PESTICIDAL COMPOSITIONS AND METHODS FOR DELIVERY OF ACTIVE INGREDIENTS” (0903608 B.C. Ltd., priority 2018, published 2021)
